According to patent US7071218B2, “N-substituted heterocycles for the treatment of hypercholesteremia, dyslipidemia and other metabolic disorders; cancer, and other diseases” (Incyte San Diego Incorporated, priority 2001, dated 2006):

Tests used:
LXR = assay: In vitro transactivation assay in CV-1 cells, antagonism of T0901317-induced Gal-LXR activation; assay type: cell-based; settings: at 10 μM, with 1 μM agonist T0901317, dose-dependent
From the text: In vitro screens such as the transactivation assay can be used to measure the ability of a compound to inhibit a nuclear receptor regulating lipid or carbohydrate uptake, synthesis or metabolism. In the assay described herein compounds can be identified that can inhibit activation of the following nuclear receptors: LXR, PPARα, PPARγ and FXR. This activity can be useful to treat lipid disorders such as hypercholesteremia and obesity.
Cell line: Kidney Green Monkey CV-1 cells.
Growing culturing medium: Dulbecco's modified Eagle's medium (DMEM) supplememnted with 10% fetal calf serum (FCS).
Procedure: CV-1 cells were plated in 48 well-plate culture plates, at a density of 10,000 cells/well, 24 h prior to transfection. One to three hours before transfection, cells were fed with fresh medium. A modified calcium phosphate precipitation procedure was used for transient transfection (Pfahl, M. et al., 1990, Methods in Enzymology 189: 256).
Typically, 40 ng reporter plasmid and 20 ng of each receptor expression vector were mixed, together with 10 ng of β-galactosidase control plasmid (pCH110, Pharmacia, Piscataway, N.J.) and Bluescript plasmid to obtain a total of 400 ng DNA per well. To this mixture 1 μl of 2.5M CaCl2 and 10 μl of BBS buffer, pH 6.95, were added afterward. […]

[1] = Oral treatment of hypercholesterolemia in Sprague Dawley rats on a high cholesterol atherogenic diet (serum cholesterols); assay type: in vivo; settings: 20 mg/kg once daily by oral gavage for five days
Procedure: Six week-old male Sprague Dawley rats (HSD, Harlan) were housed in a fixed 12–12-hr artificial light-dark cycle, and maintained on a high cholesterol, atherogenic diet ad libitum (# C13002, Research Diets, New Jersey).
Animals were maintained on this diet throughout the course of the study.
Following six days of maintenance on the high cholesterol diet, the animals were bled from the tail vein (100–200 μL of whole blood) and serum levels of total cholesterol were measured in duplicate (Infinity Cholesterol Kit; Sigma, St. Louis, Mo.). Based on these initial measures, animals were sorted into groups with approximately the same average serum cholesterol levels. Once sorted, the animals were housed three per cage and maintained on the high cholesterol diet ad libitum.
Treatment groups (n=6/group): • 1) High cholesterol fed control (sesame oil) • 2) Compound 7 (20 mg/kg; once daily)
Compound 7 was mixed in sesame oil, and administered to animals in a volume of 3 mL/kg/dose. Compound 7 was administered by oral gavage daily for five consecutive days.
To monitor the effect of Compound 7, animals were bled from the tail vein five days after commencement of oral treatment. Serum cholesterols were measured in duplicate. The blood is kept at room temperature to allow coagulation, after which the serum is separated and assayed for total cholesterol (see FIG. 1), high density lipoprotein cholesterol (see FIG. 2) and low density lipoprotein cholesterol levels (see FIG. 3). […] Similarly, Compound 7 reduced LDL cholesterol levels compared to controls (ANOVA, Fisher's Least significant difference test, p≦0.01). Finally, Compound 7 increased HDL cholesterol levels compared to controls (ANOVA, Fisher's Least significant difference test, p<0.01).

CN(C)c1cc2c(cc1-c1ccc3cc(/C=C4\SC(=S)N(CC(=O)O)C4=O)ccc3c1)C(C)(C)CCC2(C)C [Compound 7, {5-[6-(3-Dimethylamino-5,5,8,8-tetramethyl-5,6,7,8-tetrahydro-naphthalen-2-yl)-naphthalen-2-ylmethylene]-4-oxo-2-thioxo-thiazolidin-3-yl}-acetic acid]
inhibition of T0901317-induced LXR activation (LXR): 80–90% | HDL cholesterol levels compared to controls ([1]; p<0.01): increased | LDL cholesterol levels compared to controls ([1]; p≦0.01): reduced | total serum cholesterol compared to control animals ([1]; p≦0.01): significantly reduced
